Test results taken from BindingDB's records for doi:10.1021/jm991125l (Institut Curie, 2000).

Assay: Effective concentration required to achieve 50% inhibition of HIV-1 LAI replication in human T4 lymphoblastoid CEM-SS cells.

| Compound | EC50 |
| --- | --- |
| CCc1c(C)[nH]c(=O)c(N)c1Cc1cc(C)cc(C)c1 [3-amino-4-[(3,5-dimethylphenyl)methyl]-5-ethyl-6-methyl-1,2-dihydropyridin-2-one] | 0.017 µM |
| CCc1c(C)[nH]c(=O)c(NC(=O)CCCC(=O)O)c1Cc1cc(C)cc(C)c1 | 4.5 µM |
| CCc1c(C)[nH]c(=O)c(NC(=O)CCCCCCCCCNC(=O)OC(C)(C)C)c1Cc1cc(C)cc(C)c1 | > 10 µM |
| CCc1c(C)[nH]c(=O)c(NC(=O)CCCCCCCCC(=O)OC)c1Cc1cc(C)cc(C)c1 | > 10 µM |
| CCc1c(C)[nH]c(=O)c(NC(=O)CNC(=O)CNC(=O)OC(C)(C)C)c1Cc1cc(C)cc(C)c1 | 3.2 µM |
| CCc1c(C)[nH]c(=O)c(NC(=O)CCCC(=O)OC)c1Cc1cc(C)cc(C)c1 | 24 µM |
| CCc1c(Sc2cc(C)cc(C)c2)n(CCCCC(=O)OC)c(=O)[nH]c1=O | 0.025 µM |
| CCc1c(C)[nH]c(=O)c(NC(=O)CNC(=O)CN)c1Cc1cc(C)cc(C)c1 | 0.72 µM |
| CCc1c(C)[nH]c(=O)c(NC(=O)CCCCCCCCC(=O)O)c1Cc1cc(C)cc(C)c1 | 70 µM |
| Nc1ccn([C@H]2CC[C@@H](CO)O2)c(=O)n1 [Dideoxycytidine] | 0.031 µM |

The remaining lines, values ahead:

| EC50 | Compound |
| --- | --- |
| 7.8 µM | NCCCCCCCCCCCCNc1ccn(C2CCC(CO)O2)c(=O)n1 (configuration not stated) |
| > 100 µM | COC(=O)CCCNC(=O)CCc1cn(C2CC(N=[N+]=[N-])C(CO)O2)c(=O)[nH]c1=O (configuration not stated) |
| 0.002 µM | Cc1cn([C@H]2C[C@H](N=[N+]=[N-])[C@@H](CO)O2)c(=O)[nH]c1=O [1-((2R,4S,5S)-4-Azido-5-hydroxymethyl-tetrahydro-furan-2-yl)-5-methyl-1H-pyrimidine-2,4-dione] |
| > 100 µM | [N-]=[N+]=NC1CC(n2cc(CCC(=O)NCCCCN)c(=O)[nH]c2=O)OC1CO (configuration not stated) |
| > 100 µM | COC(=O)CCc1cn(C2CC(N=[N+]=[N-])C(CO)O2)c(=O)[nH]c1=O (configuration not stated) |
| 2.8 µM | CCc1c(Sc2cc(C)cc(C)c2)n(CCCCC(=O)NCCCCCCCCCCNC(=O)CCn2c(=O)c(C)cn(C3CC(N=[N+]=[N-])C(CO)O3)c2=O)c(=O)[nH]c1=O (configuration not stated) |
| 1.7 µM | CCc1c(Sc2cc(C)cc(C)c2)n(CCCCC(=O)NCCCCCCCCCCNC(=O)CCc2cn(C3CC(N=[N+]=[N-])C(CO)O3)c(=O)[nH]c2=O)c(=O)[nH]c1=O (configuration not stated) |
| 58 µM | CCc1c(C)[nH]c(=O)c(NC(=O)CCCCCCCCCN)c1Cc1cc(C)cc(C)c1 |
| 0.43 µM | CCc1c(Sc2cc(C)cc(C)c2)n(CCCCC(=O)NCCCCCCCCCCCCNc2ccn(C3CCC(CO)O3)c(=O)n2)c(=O)[nH]c1=O (configuration not stated) |
| 20 µM | [N-]=[N+]=NC1CC(n2cc(CCC(=O)NCCCCCCCCCCN)c(=O)[nH]c2=O)OC1CO (configuration not stated) |
| 0.8 µM | CCOC(=O)CCn1c(=O)c(C)cn(C2CC(N=[N+]=[N-])C(CO)O2)c1=O (configuration not stated) |
| 3.3 µM | CCc1c(Sc2cc(C)cc(C)c2)n(CCCCC(=O)NCCCCNC(=O)CCc2cn(C3CC(N=[N+]=[N-])C(CO)O3)c(=O)[nH]c2=O)c(=O)[nH]c1=O (configuration not stated) |
